Data: patent US10874743B2, “IRAK degraders and uses thereof” (Kymera Therapeutics, Inc., priority 2017, dated 2020)
Several values for one entry are separate records, joined by “and”; a condition that tells them apart may be missing. Identical values can stand only once. Like-named read-outs stand apart in the source and are kept apart here.

Assay: Pharmacokinetics in CD-1 mice (plasma concentrations, PK parameters)
Type: in vivo
Method: Pharmacokinetics for I-127, I-172 and I-210 were determined in Sprague Dawley rats or CD-1 mice by dosing intravenous (IV), subcutaneous (SC) or per oral (PO) using facility SOPs and sampling plasma at required time points. Species, formulation, route of administration and time points samples are listed below for each compound.
Compounds were extracted from plasma, injected on reverse phase HPLC, eluted with a gradient from 5% to 95% acetonitrile in water and quantified by mass spectrometry with internal standard. Data are expressed in ng compound per mL of plasma.

[1] = mouse (CD1) iv 2 mg/kg, individual Mouse 1-3, 2 mg/kg
[2] = mouse (CD1) po 30 mg/kg, individual Mouse 4-6, 30 mg/kg
[3] = mouse (CD1) sc 30 mg/kg, individual Mouse 7-9, 30 mg/kg

- Tmax (CD-1, mouse, plasma, sc, 30 mg/kg, mouse (CD1) sc 30 mg/kg, Mean, read-out: Tmax): 2.33 h
- half-life (CD-1, mouse, plasma, sc, 30 mg/kg, mouse (CD1) sc 30 mg/kg, individual Mouse 7-9): 260 min
- AUC(0-inf) (CD-1, mouse, plasma, sc, 30 mg/kg, mouse (CD1) sc 30 mg/kg, individual Mouse 7-9, read-out: AUCInf): 1000 ng·h/mL
- AUC(0-t) (CD-1, mouse, plasma, sc, 30 mg/kg, mouse (CD1) sc 30 mg/kg, individual Mouse 7-9, read-out: AUClast): 980 ng·h/mL
- Cmax (CD-1, mouse, plasma, sc, 30 mg/kg, mouse (CD1) sc 30 mg/kg, individual Mouse 7-9, read-out: Cmax): 107 ng/mL
- MRT inf (CD-1, mouse, plasma, sc, 30 mg/kg, mouse (CD1) sc 30 mg/kg, individual Mouse 7-9, read-out: MRTInf_obs): 6.06 h
- Concentration (mouse (CD1) iv 2 mg/kg, 5 min, individual Mouse 1-3, 2 mg/kg): 495 ng/mL and 692 ng/mL
- Concentration (mouse (CD1) iv 2 mg/kg, 0.25 h, individual Mouse 1-3, 2 mg/kg): 382 ng/mL and 424 ng/mL
- Concentration (mouse (CD1) iv 2 mg/kg, 0.5 h, individual Mouse 1-3, 2 mg/kg): 238 ng/mL and 306 ng/mL
- Concentration (mouse (CD1) iv 2 mg/kg, 1 h, individual Mouse 1-3, 2 mg/kg): 164 ng/mL and 195 ng/mL
- Concentration (mouse (CD1) iv 2 mg/kg, 2 h, individual Mouse 1-3, 2 mg/kg): 92.5 ng/mL and 90.7 ng/mL
- Concentration (mouse (CD1) iv 2 mg/kg, 4 h, individual Mouse 1-3, 2 mg/kg): 20.2 ng/mL and 25.6 ng/mL
- Concentration (mouse (CD1) iv 2 mg/kg, 8 h, individual Mouse 1-3, 2 mg/kg): 4.92 ng/mL and 4.93 ng/mL
- Concentration (mouse (CD1) iv 2 mg/kg, 24 h, individual Mouse 1-3): BLOQ
- AUC_%Extrap_obs (mouse (CD1) iv 2 mg/kg, Mean): 1.66%
- AUClast/D (mouse (CD1) iv 2 mg/kg, Mean): 331 h·ng/mL per mg/kg
- Cl_obs (mouse (CD1) iv 2 mg/kg, Mean): 49.9 mL/min/kg
- Vss_obs (mouse (CD1) iv 2 mg/kg, Mean): 4.48 L/kg
- AUCInf [1]: 597 ng·h/mL and 706 ng·h/mL
- AUC_%Extrap_obs [1]: 1.76% (2×) and 1.47%
- AUClast [1]: 586 ng·h/mL and 695 ng·h/mL
- AUClast/D [1]: 351 h·ng/mL per mg/kg and 293 h·ng/mL per mg/kg and 348 h·ng/mL per mg/kg
- C0 [1]: 563 ng/mL and 884 ng/mL
- MRTInf_obs [1]: 1.41 h
- T1/2 [1]: 1.48 h and 1.46 h
- Vss_obs [1]: 4.42 L/kg and 5.04 L/kg and 4.00 L/kg
- Concentration (mouse (CD1) po 30 mg/kg, 0.25 h, individual Mouse 4-6, 30 mg/kg): 55.9 ng/mL and 23.7 ng/mL and 12.8 ng/mL
- Concentration (mouse (CD1) po 30 mg/kg, 0.5 h, individual Mouse 4-6, 30 mg/kg): 120 ng/mL and 23.0 ng/mL and 22.2 ng/mL
- Concentration (mouse (CD1) po 30 mg/kg, 1 h, individual Mouse 4-6, 30 mg/kg): 153 ng/mL and 16.9 ng/mL and 45.1 ng/mL
- Concentration (mouse (CD1) po 30 mg/kg, 2 h, individual Mouse 4-6, 30 mg/kg): 91.1 ng/mL and 112 ng/mL
- Concentration (mouse (CD1) po 30 mg/kg, 4 h, individual Mouse 4-6, 30 mg/kg): 143 ng/mL and 123 ng/mL
- Concentration (mouse (CD1) po 30 mg/kg, 8 h, individual Mouse 4-6, 30 mg/kg): 34.8 ng/mL and 17.1 ng/mL and 16.4 ng/mL
- Concentration (mouse (CD1) po 30 mg/kg, 24 h, individual Mouse 4-6): BLOQ
- AUC_%Extrap_obs (mouse (CD1) po 30 mg/kg, Mean): 9.8%
- AUClast/D (mouse (CD1) po 30 mg/kg, Mean): 22.5 h·ng/mL per mg/kg
- F (mouse (CD1) po 30 mg/kg, Mean): 7.47%
- AUCInf [2]: 681 ng·h/mL and 662 ng·h/mL
- AUC_%Extrap_obs [2]: 14.2% and 7.97% and 7.15%
- AUClast [2]: 627 ng·h/mL and 615 ng·h/mL
- AUClast/D [2]: 26.2 h·ng/mL per mg/kg and 20.9 h·ng/mL per mg/kg and 20.5 h·ng/mL per mg/kg
- Cmax [2]: 143 ng/mL and 123 ng/mL
- F [2]: 9.09% and 6.76% and 6.57%
- MRTInf_obs [2]: 4.24 h and 3.97 h
- T1/2 [2]: 2.20 h and 2.00 h
- Concentration (mouse (CD1) sc 30 mg/kg, 0.25 h, individual Mouse 7-9, 30 mg/kg): 93.0 ng/mL and 70.1 ng/mL
- Concentration (mouse (CD1) sc 30 mg/kg, 0.5 h, individual Mouse 7-9, 30 mg/kg): 101 ng/mL and 66.6 ng/mL
- Concentration (mouse (CD1) sc 30 mg/kg, 1 h, individual Mouse 7-9, 30 mg/kg): 107 ng/mL and 76.5 ng/mL
- Concentration (mouse (CD1) sc 30 mg/kg, 2 h, individual Mouse 7-9, 30 mg/kg): 115 ng/mL and 81.1 ng/mL
- Concentration (mouse (CD1) sc 30 mg/kg, 4 h, individual Mouse 7-9, 30 mg/kg): 91.8 ng/mL and 105 ng/mL
- Concentration (mouse (CD1) sc 30 mg/kg, 8 h, individual Mouse 7-9, 30 mg/kg): 49.0 ng/mL and 42.0 ng/mL
- Concentration (mouse (CD1) sc 30 mg/kg, 24 h, individual Mouse 7-9, 30 mg/kg): 2.88 ng/mL and 2.05 ng/mL
- AUC_%Extrap_obs (mouse (CD1) sc 30 mg/kg, Mean): 1.60%
- AUClast/D (mouse (CD1) sc 30 mg/kg, Mean): 33.9 h·ng/mL per mg/kg
- F (mouse (CD1) sc 30 mg/kg, Mean): 10.3%
- AUCInf [3]: 1119 ng·h/mL and 983 ng·h/mL
- AUC_%Extrap_obs [3]: 2.26% and 1.48% and 1.07%
- AUClast [3]: 1102 ng·h/mL and 973 ng·h/mL
- AUClast/D [3]: 32.7 h·ng/mL per mg/kg and 36.7 h·ng/mL per mg/kg and 32.4 h·ng/mL per mg/kg
- Cmax [3]: 115 ng/mL and 105 ng/mL
- F [3]: 9.94% and 11.1% and 9.75%
- MRTInf_obs [3]: 5.82 h and 5.73 h
- T1/2 [3]: 3.98 h and 3.56 h
- Tmax [3]: 1 h
Structure (SMILES): O=C1CCC(N2C(=O)c3cccc(NCCOCCOCCNCc4ccc(-n5cc(NC(=O)c6coc(-c7ccnc(NCC8CC8)c7)n6)c(C(F)F)n5)cc4)c3C2=O)C(=O)N1 (stereo not shown) [I-210, 2-[2-(Cyclopropylmethylamino)-4-pyridyl]-N-[3-(difluoromethyl)-1-[4-[[2-[2-[2-[[2-(2,6-dioxo-3-piperidyl)-1,3-dioxoisoindolin-4-yl]amino]ethoxy]ethoxy]ethylamino]methyl]phenyl]pyrazol-4-yl]oxazole-4-carboxamide]
- Cl_obs [1]: 46.7 mL/min/kg and 55.8 mL/min/kg and 47.2 mL/min/kg
